“And” between values parts separate entries of the source, which are not always exact repeats. Equal entries are not always repeated. Where two headings read alike, the source gives them in different places.
What was measured:
Ca^+2 channel = experiment: Calcium channel blockade (FLIPR Calcium 6, KCl/CaCl2-stimulated SH-SY5Y cells); type: cell-based; conditions: 10 μM; SH-SY5Y cells stimulated with KCl/CaCl2
Description: The calcium channel blockade assay was performed as described earlier. Briefly, the SH-SY5Y cells were seeded out in 96-well dark-walled plates at a density of 1 × 10^5 cells per well. After 24 h, the cells were loaded with FLIPR Calcium 6 indicator (Molecular Devices) for 2 h at 37 °C, according to the manufacturer’s protocol. Compounds were dissolved in an appropriate amount of DMSO at 10 mM concentration and diluted to a final concentration of 10 μM in Hanks′ Balanced Salt Solution (HBSS, Thermo Fisher Scientific) buffered with HEPES (Sigma-Aldrich) at pH = 7.4, and as such used were for treatment of indicator loaded cells (10 min at 37 °C). […] The baseline fluorescence was recorded for 5 s. Then, the cells were stimulated with KCl/CaCl2 solution (in HBSS, final concentration of KCl and CaCl2 was 90 and 5 mM, respectively) and the fluorescence was recorded for a further 30 s. Dimethyl sulfoxide 1% solution in HBSS was used as a vehicle control. Nimodipine (Cayman Chemical Company) was used as a reference inhibitor at 10 μM and compounds were assessed at the same final concentration in triplicate in three independent experiments. Fluorescent intensity values were normalized to the baseline.

EeAChE = EeAChE (Electrophorus electricus, UniProt O42275); experiment: biochemical; type: biochemical
Chain of EeAChE (O42275 24-633): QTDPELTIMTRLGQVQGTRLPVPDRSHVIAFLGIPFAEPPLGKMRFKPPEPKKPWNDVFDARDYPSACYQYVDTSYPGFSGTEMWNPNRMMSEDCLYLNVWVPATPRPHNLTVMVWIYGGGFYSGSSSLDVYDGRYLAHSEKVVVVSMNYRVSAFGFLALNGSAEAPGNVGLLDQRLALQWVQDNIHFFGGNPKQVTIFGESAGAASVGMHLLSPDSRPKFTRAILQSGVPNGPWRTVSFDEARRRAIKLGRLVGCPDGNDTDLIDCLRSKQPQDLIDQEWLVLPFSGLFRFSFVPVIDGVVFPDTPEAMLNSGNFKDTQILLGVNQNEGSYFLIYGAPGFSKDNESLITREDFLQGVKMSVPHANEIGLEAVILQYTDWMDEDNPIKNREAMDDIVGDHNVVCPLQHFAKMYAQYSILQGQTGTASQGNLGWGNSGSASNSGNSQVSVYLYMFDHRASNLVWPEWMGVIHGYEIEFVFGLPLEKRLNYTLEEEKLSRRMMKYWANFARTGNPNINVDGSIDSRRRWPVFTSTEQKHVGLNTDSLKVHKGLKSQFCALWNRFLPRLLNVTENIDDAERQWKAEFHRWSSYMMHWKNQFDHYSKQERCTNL
Description: (§1) The evaluation of the activity of compounds against both EeAChE and eqBuChE was evaluated following the Ellman spectrophotometric method. Briefly, the reaction happens in a final volume of 3 mL of a 0.1 M phosphate-buffered solution at pH = 8.0, containing 5,5′-dithiobis-2-nitrobenzoic acid, EeAChE or eqBuChE, tested compound and bovine albumin serum phosphate-buffered (pH = 8) solution After this pre-incubation period, acetylthiocholine iodide or butyrylthiocholine iodide was added, allowing 15 min of additional incubation time.

[1] = Oxygen radical absorbance capacity assay (ORAC-FL); conditions: Trolox equivalents, mean (n = 3) ± SEM
Description: Briefly, fluorescein and antioxidant were incubated in a black 96-well microplate (Nunc) for 15 min at 37 °C. 2,2′-Azobis(amidinopropane) dihydrochloride was then added quickly using the built-in injector of Varioskan Flash plate reader (Thermo Scientific). […] All the reactions were made in triplicate and at least three different assays were performed for each sample [9, 30].

eqBuChE = eqBuChE (Equus caballus, UniProt P81908); experiment: biochemical; conditions: mean ± SEM, read-out: BuChE IC50
Chain of eqBuChE (P81908 whole entry): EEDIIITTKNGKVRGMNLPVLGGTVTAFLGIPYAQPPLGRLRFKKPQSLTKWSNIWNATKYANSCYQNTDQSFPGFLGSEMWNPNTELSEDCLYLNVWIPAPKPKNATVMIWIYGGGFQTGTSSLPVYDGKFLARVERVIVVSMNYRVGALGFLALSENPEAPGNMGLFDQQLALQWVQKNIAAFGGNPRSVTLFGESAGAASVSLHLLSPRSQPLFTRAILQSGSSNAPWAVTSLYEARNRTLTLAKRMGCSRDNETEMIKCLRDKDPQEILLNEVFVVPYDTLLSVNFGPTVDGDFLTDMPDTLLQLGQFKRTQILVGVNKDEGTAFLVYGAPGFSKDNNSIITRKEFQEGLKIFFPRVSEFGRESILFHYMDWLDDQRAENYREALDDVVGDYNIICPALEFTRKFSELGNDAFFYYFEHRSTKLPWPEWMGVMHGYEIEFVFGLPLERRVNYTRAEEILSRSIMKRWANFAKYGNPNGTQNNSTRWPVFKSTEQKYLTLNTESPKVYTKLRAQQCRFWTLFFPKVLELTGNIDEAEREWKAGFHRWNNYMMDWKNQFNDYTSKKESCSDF
Description: as §1

SH-SY5Y cells [2] = experiment: Neuroprotection against oligomycin A/rotenone (O/R)-induced cell death in SH-SY5Y cells (MTS); type: cell-based; conditions: for O/R (%) neuroprotection: O at 10 µM/R at 30 µM
Description: (§2) The most balanced compounds were then submitted to evaluation of their neuroprotection activity. For this purpose, cytotoxicity was induced by H2O2, a well-known toxic responsible for the generation of ROS and by mitochondrial respiratory chain blockers oligomycin rotenone (O/R). Prior to the neuroprotective assay, the effect of the compounds on cell viability was evaluated at 1 and 10 µM, showing no cytotoxicity against SH-SY5Y cells.
(§3) SH-SY5Y cells were seeded in 96-well culture plates at a density of 12 × 10^4 cells per well in DMEM/F12 (1:1) medium supplemented with 10% fetal bovine serum, 1X non-essential amino acids, 100 units/mL penicillin and […] streptomycin (Dutscher, France). After 48 h of incubation, the cultures were treated with 100 µl of the test compounds or DMSO (0.1%) in the same medium. After 24 h, the cells were co-incubated with H2O2 (200 µM) or O/R (O at 10 µM/R at 30 µM) with or without the tested compounds at noncytotoxic concentrations for an additional period of 24 h. The percentage of cell viability was measured using CellTiter 96 AQueous Non-Radioactive Cell Proliferation (MTS) Assay (Promega, France).

SH-SY5Y cells [3] = experiment: Neuroprotection against H2O2-induced cell death in SH-SY5Y cells (MTS); type: cell-based; conditions: for H2O2 (%) neuroprotection: H2O2 200 µM
Description: as §2, §3

SH-SY5Y cells [4] = test system: SH-SY5Y cells; set-up: method as in PMID 27736061; conditions: 0.1 µM; cited from earlier work
SH-SY5Y cells [5] = test system: SH-SY5Y cells; set-up: method as in PMID 27736061; conditions: 0.1 µM, cited from earlier work

Structure (SMILES)	(%) Ca Flux Inhibition (Ca^+2 channel) [%]	fold less active than tacrine (AChE IC50) (EeAChE; AChE IC50 vs tacrine) [fold]	IC50 (EeAChE; EeAChE, mean ± SEM, read-out: AChE IC50) [nM]	ORAC [1]	IC50 (eqBuChE) [nM]	O/R (%) neuroprotection (SH-SY5Y cells [2]; 0.3 µM)	O/R (%) neuroprotection (SH-SY5Y cells [2]; 1 µM)	H2O2 (%) neuroprotection (SH-SY5Y cells [3]; 0.3 µM)	H2O2 (%) neuroprotection (SH-SY5Y cells [3]; 1 µM) [%]	inhibition at 10 µM (EeAChE; read-out: AChE % inhibition at 10 μM (no IC50 given), EeAChE, 10 μM) [%]	ORAC ([1]; listed as 2m) [TE]	neuroprotective effect against O/R (in words) (SH-SY5Y cells [2])	neuroprotective effect against H2O2 (in words) (SH-SY5Y cells [3])	H2O2 (%) neuroprotection (SH-SY5Y cells [4])	O/R (%) neuroprotection (SH-SY5Y cells [5]; listed as Melatonin)	O/R (%) neuroprotection (SH-SY5Y cells [5]; listed as melatonin) [%]
COC(=O)C1=C(C)NC(C)=C(C(=O)OC)C1c1ccc(OCCCCCN2CCC(Cc3ccccc3)CC2)cc1 [3h, Dimethyl-4-(4-((5-(4-benzylpiperidin-1-yl)pentyl)oxy)phenyl)-2,6-dimethyl-1,4-dihydropyridine-3,5-dicarboxylate]	47.72	60	1800 ± 100	2.54 TE and 2.54 ± 0.04 TE	2000 ± 100	38.29% and 38.29 ± 0.04 %	33.90% and 33.90 ± 0.05 %	28% and 28.68% and 28.68 ± 0.02 %	23.32 ± 0.02	–	–	–	–	–	–	–
CCOC(=O)C1=C(C)NC(C)=C(C(=O)OCC)C1c1ccc(OCCCCCCN2CCN(C)CC2)cc1 [3m, 3,5-Diethyl-2,6-dimethyl-4-(4-{[6-(4-methylpiperazin-1-yl)hexyl]oxy}phenyl)-1,4-dihydro-pyridine-3,5-dicarboxylate]	50.6	–	–	1.10 ± 0.08 TE	5500 ± 100	8.95 ± 0.00%	16.65 ± 0.00%	9.55 ± 0.00%	4.63 ± 0.02	< 50	1.10	modest	modest	–	–	–
COc1ccc2[nH]cc(CCNC(C)=O)c2c1 [MEL, melatonin]	–	–	–	–	–	–	–	–	–	–	–	–	–	55.4 ± 7.73 *[10] %	66.6 ± 3.01 ***[10] %	66.6
